Data as given in patent US20220370556A1, “Method of Treatment” (Volution Immuno Pharmaceuticals SA, priority 2019, published 2022).

Experiments:
[1] = target: Human BLT2 G-protein coupled receptor; conditions: ref. [13]; cited from earlier work
[2] = target: T1, nomacopan (EV576, OmCI protein, Coversin), Ornithodoros moubata, mature form, amino acids 19 to 168 of SEQ ID NO: 2 (SEQ ID NO: 4) (Ornithodoros moubata, UniProt Q5YD59); experiment: Fluorescence titration of LTB4 binding to nomacopan; conditions: 100 nM nomacopan in PBS, 20° C., excitation 280 nm, emission 340 nm
T1 sequence (Q5YD59 19-168): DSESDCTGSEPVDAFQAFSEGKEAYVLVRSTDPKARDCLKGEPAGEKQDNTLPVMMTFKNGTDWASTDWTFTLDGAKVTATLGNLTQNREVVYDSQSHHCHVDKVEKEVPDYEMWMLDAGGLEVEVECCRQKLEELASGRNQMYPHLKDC
Text: The ability of a nomacopan-type protein to bind LTB4 may be determined by standard in vitro assays known in the art, for example by means of a competitive ELISA between nomacopan and anti-LTB4 antibody competing for binding to labelled LTB4, by isothermal titration calorimetry or by fluorescence titration. […] For example, binding activity for LTB4 (Caymen Chemicals, Ann Arbor, Mich., USA) in phosphate buffered saline (PBS) can be quantified in a spectrofluorimeter e.g. a LS 50 B spectrofluorimeter (Perkin-Elmer, Norwalk, Conn., USA). This may be carried out by may be carried out as follows:
Purified 100 nM solutions of nomacopan, in 2 mL PBS were applied in a quartz cuvette (10 mm path length; Hellma, Mühlheim, Germany) equipped with a magnetic stirrer.
Temperature was adjusted to 20° C. and, after equilibrium was reached, protein Tyr/Trp fluorescence was excited at 280 nm (slit width: 15 nm). The fluorescence emission was measured at 340 nm (slit width: 16 nm) corresponding to the emission maximum. A ligand solution of 30 μM LTB4 in PBS was added step-wise, up to a maximal volume of 20 μL (1% of the whole sample volume), and after 30 s incubation steady state fluorescence was measured. […]

[3] = target: Human BLT1 G-protein coupled receptor; conditions: high affinity receptor, ref. [12]; cited from earlier work

CCCCC/C=C\C[C@@H](O)/C=C/C=C/C=C\[C@@H](O)CCCC(=O)O [LTB4, Leukotriene B4]
Kd [1]: 23 nM
Kd [2]: 0.1 to 0.3 nM
Kd [3]: 0.39 to 1.5 nM
